Measured values published in US20090221653A1, “7-(2-amino-1-hydroxy-ethyl)-4-hydroxybenzothiazol-2(3H)-one-derivatives as beta2 adrenoreceptor agonists” (AstraZeneca AB, priority 2005, published 2009).
Counter-ions that a name gives are not always drawn. Like-named read-outs stand apart in the source and are kept apart here.

Experiments:
[1] = target: T1, recombinant human α1D receptor (Homo sapiens, UniProt P25100); assay: Adrenergic α1D selectivity assay, inhibition of [3H]-prazosin binding; conditions: HEK293 membranes, [3H]-prazosin 0.3 nM; read-out: α1 bind pIC50 (converted)
T1 construct: expressed in transfected cells; host or cells: HEK293
T1 sequence (P25100 1-572): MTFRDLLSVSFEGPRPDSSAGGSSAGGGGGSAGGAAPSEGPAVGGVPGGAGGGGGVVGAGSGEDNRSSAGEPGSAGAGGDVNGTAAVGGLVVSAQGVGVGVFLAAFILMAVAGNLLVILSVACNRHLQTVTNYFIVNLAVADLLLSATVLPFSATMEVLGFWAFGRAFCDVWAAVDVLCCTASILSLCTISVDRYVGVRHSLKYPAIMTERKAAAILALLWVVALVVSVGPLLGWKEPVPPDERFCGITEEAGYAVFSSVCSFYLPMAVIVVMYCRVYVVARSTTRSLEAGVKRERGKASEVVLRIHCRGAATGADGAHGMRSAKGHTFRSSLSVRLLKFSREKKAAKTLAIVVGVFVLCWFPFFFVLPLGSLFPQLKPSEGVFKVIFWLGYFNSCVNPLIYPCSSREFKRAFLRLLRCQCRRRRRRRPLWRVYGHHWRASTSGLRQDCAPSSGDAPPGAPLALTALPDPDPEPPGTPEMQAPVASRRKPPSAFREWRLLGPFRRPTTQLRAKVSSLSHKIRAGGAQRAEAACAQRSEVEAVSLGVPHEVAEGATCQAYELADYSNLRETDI
Procedure: Membranes were prepared from human embryonic kidney 293 (HEK293) cells expressing recombinant human α1D receptor. These were diluted in Assay Buffer (50 mM HEPES, 1 mM EDTA, 0.1% gelatin, pH 7.4) to provide a final concentration of membranes that gave a clear window between maximum and minimum specific binding.
(§1) Assays were performed in U-bottomed 96-well polypropylene plates. 10 μL [^3H]-prazosin (0.3 nM final concentration) and 10 μL of test compound (10× final concentration) were added to each test well. For each assay plate 8 replicates were obtained for [^3H]-prazosin binding in the presence of 10 μL vehicle (10% (v/v) DMSO in Assay Buffer; defining maximum binding) or 10 μL BMY7378 (10 μM final concentration; defining non-specific binding (NSB)). Membranes were then added to achieve a final volume of 100 μL. The plates were incubated for 2 hours at room temperature and then filtered onto PEI coated GF/B filter plates, pre-soaked for 1 hour in Assay Buffer, using a 96-well plate Tomtec cell harvester. Five washes with 250 μL wash buffer (50 mM HEPES, 1 mM EDTA, pH 7.4) were performed at 4° C. to remove unbound radioactivity. The plates were dried then sealed from underneath using Packard plate sealers and MicroScint-O (50 μL) was added to each well. The plates were sealed (TopSeal A) and filter-bound radioactivity was measured with a scintillation counter (TopCount, Packard BioScience) using a 3-minute counting protocol.
(§2) Total specific binding (B0) was determined by subtracting the mean NSB from the mean maximum binding. NSB values were also subtracted from values from all other wells.

[2] = target: T2, recombinant human adrenergic beta 1 receptors (Homo sapiens, UniProt P08588); assay: Adrenergic β1 selectivity assay, inhibition of [125I]-Iodocyanopindolol binding
T2 construct: purchased Euroscreen
Procedure: (§3) Membranes containing recombinant human adrenergic beta 1 receptors were obtained from Euroscreen. These were diluted in Assay Buffer (50 mM HEPES, 1 mM EDTA, 120 mM NaCl, 0.1% gelatin, pH 7.4) to provide a final concentration of membranes that gave a clear window between maximum and minimum specific binding.
as §1, with “10 μL [^3H]-prazosin (0.3 nM final concentration) and 10 μL of test compound (10× final concentration) were added to each test well. For each assay plate 8 replicates were obtained for [^3H]-prazosin binding in the presence of 10 μL vehicle (10% (v/v) DMSO in Assay Buffer; defining maximum binding) or 10 μL BMY7378 (10 μM final concentration; defining non-specific binding (NSB)).” left out, “EDTA, 120 mM NaCl,” for “EDTA,”
as §2

Adrenergic β2 = target: T3, Adrenergic β2 (Homo sapiens, UniProt P07550); assay: Alternative Adrenergic β2 Mediated cAMP Production in H292 cells (AlphaScreen cAMP detection); type: cell-based; conditions: for EC50: cAMP, test compounds incubated 60 minutes, 300 μM rolipram, read-out: β2 pEC50 (converted); for β2 Int Act: fraction relative to the maximum activity determined for formoterol, 60 minutes incubation
T3 construct: endogenous in cells; host or cells: H292 cells
Procedure: H292 cells were grown in 225 cm2 flasks incubator at 37° C., 5% CO2 in RPMI medium containing, 10% (v/v) FBS (foetal bovine serum) and 2 mM L-glutamine.
Adherent H292 cells were removed from tissue culture flasks by treatment with Accutase™ cell detachment solution for 15 minutes. Flasks were incubated for 15 minutes in a humidified incubator at 37° C., 5% CO2. Detached cells were re-suspended in RPMI media (containing 10% (v/v) FBS and 2 mM L-glutamine) at 0.05×10^6 cells per mL. 5000 cells in 100 μL were added to each well of a tissue-culture-treated 96-well plate and the cells incubated overnight in a humidified incubator at 37° C., 5% CO2. The culture media was removed and cells were washed twice with 100 μL assay buffer and replaced with 50 μL assay buffer (HBSS solution containing 10 mM HEPES pH7.4 and 5 mM glucose). […] Cells were incubated with rolipram for 10 minutes after which time test compounds were added and the cells were incubated for 60 minutes at room temperature. […] The reaction was stopped by removing supernatants, washing once with 100 μL assay buffer and replacing with 50 μL lysis buffer. The cell monolayer was frozen at −80° C. for 30 minutes (or overnight).
The concentration of cAMP (cyclic adenosine monophosphate) in the cell lysate was determined using AlphaScreen™ methodology. The frozen cell plate was thawed for 20 minutes on a plate shaker then 10 μL of the cell lysate was transferred to a 96-well white plate. 40 μL of mixed AlphaScreen™ detection beads pre-incubated with biotinylated cAMP, was added to each well and the plate incubated at room temperature for 10 hours in the dark. The AlphaScreen™ signal was measured using an EnVision spectrophotometer (Perkin-Elmer Inc.) with the recommended manufacturer's settings. cAMP concentrations were determined by reference to a calibration curve determined in the same experiment using standard cAMP concentrations. Concentration response curves for agonists were constructed and data was fitted to a four parameter logistic equation to determine both the pEC50 and Intrinsic Activity.

[3] = target: T4, recombinant human Dopamine Subtype D2s receptors (Homo sapiens, UniProt P14416); assay: Dopamine D2 selectivity assay, inhibition of [3H]-spiperone binding; conditions: membranes, [3H]-spiperone 0.16 nM; read-out: D2 bind pIC50 (converted)
T4 construct: purchased Perkin Elmer
Procedure: as §3, with “human Dopamine Subtype D2s” for “human adrenergic beta 1”, “from Perkin Elmer.” for “from Euroscreen.”, “([…]” for “(50 mM”
Assays were performed in U-bottomed 96-well polypropylene plates. […] For each assay plate 8 replicates were obtained for [^3H]-spiperone binding in the presence of 30 μL vehicle (10% (v/v) DMSO in Assay Buffer; defining maximum binding) or 30 μL Haloperidol (10 μM final concentration; defining non-specific binding (NSB)). Membranes were then added to achieve a final volume of 300 μL. The plates were incubated for 2 hours at room temperature and then filtered onto PEI coated GF/B filter plates, pre-soaked for 1 hour in Assay Buffer, using a 96-well plate Tomtec cell harvester. Five washes with 250 μL wash buffer (50 mM HEPES, 1 mM EDTA, 120 mM NaCl, pH 7.4) were performed at 4° C. to remove unbound radioactivity. The plates were dried then sealed from underneath using Packard plate sealers and MicroScint-O (50 μL) was added to each well. The plates were sealed (TopSeal A) and filter-bound radioactivity was measured with a scintillation counter (TopCount, Packard BioScience) using a 3-minute counting protocol. Total specific binding (B0) was determined by subtracting the mean NSB from the mean maximum binding. NSB values were also subtracted from values from all other wells.

[4] = membranes, [125I]-Iodocyanopindolol, read-out: β1 bind pIC50 (converted)

T4 sequence (P14416 1-414 isoform P14416-2): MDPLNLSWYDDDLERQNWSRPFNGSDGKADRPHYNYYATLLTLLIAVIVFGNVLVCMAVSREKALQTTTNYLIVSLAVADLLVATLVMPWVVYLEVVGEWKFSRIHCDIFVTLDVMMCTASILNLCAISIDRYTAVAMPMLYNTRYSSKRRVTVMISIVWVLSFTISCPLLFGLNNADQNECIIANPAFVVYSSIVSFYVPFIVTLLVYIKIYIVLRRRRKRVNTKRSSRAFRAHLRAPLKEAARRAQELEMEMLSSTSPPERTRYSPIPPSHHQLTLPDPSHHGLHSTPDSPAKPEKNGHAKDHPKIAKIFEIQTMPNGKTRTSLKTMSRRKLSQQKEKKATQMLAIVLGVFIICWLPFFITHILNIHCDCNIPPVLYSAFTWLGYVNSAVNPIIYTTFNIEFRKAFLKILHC
T2 sequence (P08588 whole entry): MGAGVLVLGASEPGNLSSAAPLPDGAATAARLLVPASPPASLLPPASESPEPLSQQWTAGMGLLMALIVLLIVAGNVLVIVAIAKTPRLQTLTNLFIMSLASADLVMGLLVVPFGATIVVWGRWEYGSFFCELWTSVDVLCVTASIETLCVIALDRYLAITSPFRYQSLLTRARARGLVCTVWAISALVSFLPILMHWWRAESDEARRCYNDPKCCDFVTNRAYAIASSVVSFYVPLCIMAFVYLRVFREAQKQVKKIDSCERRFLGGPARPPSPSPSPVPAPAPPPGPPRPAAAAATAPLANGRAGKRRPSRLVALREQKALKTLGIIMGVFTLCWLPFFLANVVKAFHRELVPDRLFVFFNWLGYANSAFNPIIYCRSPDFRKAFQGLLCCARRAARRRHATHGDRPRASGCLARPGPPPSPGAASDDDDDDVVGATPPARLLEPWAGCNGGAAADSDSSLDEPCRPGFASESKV
T3 sequence (P07550 whole entry): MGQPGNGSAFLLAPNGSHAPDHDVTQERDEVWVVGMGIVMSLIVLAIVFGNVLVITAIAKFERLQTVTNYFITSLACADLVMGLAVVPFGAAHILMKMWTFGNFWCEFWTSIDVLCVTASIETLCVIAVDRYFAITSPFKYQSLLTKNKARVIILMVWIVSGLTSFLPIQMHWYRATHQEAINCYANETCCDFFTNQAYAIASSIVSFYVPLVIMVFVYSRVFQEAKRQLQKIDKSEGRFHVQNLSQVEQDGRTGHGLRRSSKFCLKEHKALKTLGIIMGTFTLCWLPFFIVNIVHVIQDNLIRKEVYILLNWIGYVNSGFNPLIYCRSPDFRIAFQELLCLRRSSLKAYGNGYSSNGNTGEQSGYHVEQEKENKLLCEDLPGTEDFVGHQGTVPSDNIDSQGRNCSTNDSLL

For `C[C@H](CNCCCSCCNC[C@H](O)c1ccc(O)c2[nH]c(=O)sc12)c1ccccc1` [Example 48, (S)-(−)-7-[(1R)-2-({2-[(3-{[2-(phenyl)propyl]amino}propyl)thio]ethyl}amino)-1-hydroxyethyl]-4-hydroxy-1,3-benzothiazol-2(3H)-one dihydrochloride], the IC50 [1] was 1580 nM, the IC50 [2, 4] was 158 nM and the EC50 (Adrenergic β2) was 1.26 nM. For the same compound, the “β2 Int Act” value (Adrenergic β2) was 0.9 and the IC50 [3] was 3980 nM.

`O=c1[nH]c2c(O)ccc([C@@H](O)CNCCCSCCNCCc3ccccc3Cl)c2s1` [Example 31, 7-[(1R)-2-({3-[(2-{[2-(2-Chlorophenyl)ethyl]amino}ethyl)thio]propyl}amino)-1-hydroxyethyl]-4-hydroxy-1,3-benzothiazol-2(3H)-one] gave an IC50 [1] of 12.6 nM, an IC50 [2, 4] of 39.8 nM and an EC50 (Adrenergic β2) of 0.398 nM. The “β2 Int Act” value (Adrenergic β2) was 0.8 and the IC50 [3] was 1580 nM.

For `N[C@@H](COCCCSCCNC[C@H](O)c1ccc(O)c2[nH]c(=O)sc12)c1ccccc1` [Example 24, 7-((1R)-2-{[2-({3-[(2R)-2-Amino-2-phenylethoxy]propyl}thio)ethyl]amino}-1-hydroxyethyl)-4-hydroxy-1,3-benzothiazol-2(3H)-one], the IC50 [1] was 158 nM, the IC50 [2, 4] was 79.4 nM and the EC50 (Adrenergic β2) was 0.398 nM. The “β2 Int Act” value (Adrenergic β2) was 0.8 and the IC50 [3] was 631 nM.

`C[C@@H](CNCCSCCCNC[C@H](O)c1ccc(O)c2[nH]c(=O)sc12)c1ccccc1` [Example 27, 4-Hydroxy-7-[(1R)-1-hydroxy-2-({3-[(2-{[(2R)-2-phenylpropyl]amino}ethyl)thio]propyl}amino)ethyl]-1,3-benzothiazol-2(3H)-one] was tested, and the IC50 [1] was 126 nM, the IC50 [2, 4] was 63.1 nM and the EC50 (Adrenergic β2) was 1 nM. For the same compound, the “β2 Int Act” value (Adrenergic β2) was 1 and the IC50 [3] was 1000 nM.

`C[C@@H](CNCCCSCCNC[C@H](O)c1ccc(O)c2[nH]c(=O)sc12)c1ccccc1` [Example 46, (R)-(+)-7-[(1R)-2-({2-[(3-{[2-(phenyl)propyl]amino}propyl)thio]ethyl}amino)-1-hydroxyethyl]-4-hydroxy-1,3-benzothiazol-2(3H)-one dihydrochloride] gave an IC50 [1] of 251 nM, an IC50 [2, 4] of 79.4 nM and an EC50 (Adrenergic β2) of 0.631 nM. The “β2 Int Act” value (Adrenergic β2) was 0.8 and the IC50 [3] was 1260 nM.

Compound `C[C@H](CNCCSCCCNC[C@H](O)c1ccc(O)c2[nH]c(=O)sc12)c1ccccc1` [Example 29, 4-Hydroxy-7-[(1R)-1-hydroxy-2-({3-[(2-{[(2S)-2-phenylpropyl]amino}ethyl)thio]propyl}amino)ethyl]-1,3-benzothiazol-2(3H)-one] has an IC50 [1] of 100 nM, an IC50 [2, 4] of 25.1 nM and an EC50 (Adrenergic β2) of 0.316 nM. The “β2 Int Act” value (Adrenergic β2) was 0.9 and the IC50 [3] was 3980 nM.

`O=c1[nH]c2c(O)ccc([C@@H](O)CNCCSCCCNCCc3cccc(Cl)c3Cl)c2s1` [Example 38, 7-[(1R)-2-({2-[(3-{[2-(2,3-Dichlorophenyl)ethyl]amino}propyl)thio]ethyl}amino)-1-hydroxyethyl]-4-hydroxy-1,3-benzothiazol-2(3H)-one dihydrochloride] was tested, and the IC50 [1] was 158 nM, the EC50 (Adrenergic β2) was 1.58 nM and the “β2 Int Act” value (Adrenergic β2) was 0.9. For the same compound, the IC50 [3] was 398 nM.

For `O=c1[nH]c2c(O)ccc([C@@H](O)CNCCS(=O)(=O)CCCNCCc3cccc(Cl)c3)c2s1` [Example 42, 7-[(1R)-2-({2-[(3-{[2-(3-Chlorophenyl)ethyl]amino}propyl)sulfonyl]ethyl}amino)-1-hydroxyethyl]-4-hydroxy-1,3-benzothiazol-2(3H)-one dihydrochloride], the IC50 [1] was 126 nM, the IC50 [2] was 794 nM and the “β2 Int Act” value (Adrenergic β2) was 1. The IC50 [3] was 10000 nM.

`CC(CNCCCSCCNC[C@H](O)c1ccc(O)c2[nH]c(=O)sc12)c1ccccc1` (mixture of isomers) [Example 44, (+/−)-7-[(1R)-2-({2-[(3-{[2-(phenyl)propyl]amino}propyl)thio]ethyl}amino)-1-hydroxyethyl]-4-hydroxy-1,3-benzothiazol-2(3H)-one dihydrochloride] showed an IC50 [1] of 398 nM, an IC50 [2, 4] of 79.4 nM and an EC50 (Adrenergic β2) of 0.631 nM. For the same compound, the “β2 Int Act” value (Adrenergic β2) was 0.8 and the IC50 [3] was 12600 nM.

In the case of `O=c1[nH]c2c(O)ccc([C@@H](O)CNCCCSCCNCCc3cccc(Cl)c3)c2s1` [Example 33, 7-[(1R)-2-({3-[(2-{[2-(3-Chlorophenyl)ethyl]amino}ethyl)thio]propyl}amino)-1-hydroxyethyl]-4-hydroxy-1,3-benzothiazol-2(3H)-one], the IC50 [1] is reported as 39.8 nM, the “β2 Int Act” value (Adrenergic β2) is reported as 1.1 and the IC50 [3] is reported as 1000 nM.
